Data set [1] deals with T1, 5-HT2A receptor (Homo sapiens, UniProt P28223). The experiment in a line: Radioligand binding assay, 5-HT2A receptor ([3H]-Ketanserin). Details: purchased PerkinElmer. Particulars: Human 5-HT2A Receptor membrane, [3H]-Ketanserin 2 nM; read-out: 5HT-2A Binding IC50. Here is the method:
Determination of the binding ability of the compounds of the
present invention to 5-HT2A receptor
The objective of this test example is to determine the affinity of the compounds for 5-HT2A receptor.
Experimental buffer: 50 mM Tris-HCl pH 7.4, 4 mM CaCl2; washing liquor: 50 mM Tris-HCl pH 7.4, stored at 4°C; 0.5% PEI solution: 0.5 g PEI dissolved in 100 mL ddH2O, 4°C storage of spare.
5 µL of the test compounds (0.005 nM to 100 nM, 10 concentrations in total) and 100 µL of buffer were added to a 96-well assay plate. 1.5 µL of cell membrane and 300 µL of buffer were added to each well, and the plate was shaken at 600 rpm for 5 minutes. 100 µL of a mixed solution of buffer and [^3H]-Ketanserin (final concentration of 2 nM) was added to the reaction system per well, and the plate was shaken at 600 rpm for 5 minutes and incubated at 27°C for 30 min. The […]-96 GF/B filter plate pre-incubated with 0.5% PEI for 1 h was washed twice with the buffer (1 mL/well). The cell membrane suspension was added to the […]-96 GF/B filter plate, washed 4 times, and incubated at 55°C for 10 min. 40 µL of ULTIMA GOLD was added to each well, and liquid scintillation counting was carried out.
(§1) The CPM (Counts per minute) values were determined by TopCount. […] The 10 concentrations of the compound were from 100 nM to 0.005 nM after 3-fold dilution of the reaction system. The percent inhibition rate and ten-point concentration data were fitted to the parametric nonlinear logistic equation by using GraphPad prism to calculate the IC50 values of the compound.

For the next data set, the target named is T2, D3 receptor (Homo sapiens, UniProt P35462).
T2 construct: expressed in transfected cells
T2 sequence (P35462 whole entry): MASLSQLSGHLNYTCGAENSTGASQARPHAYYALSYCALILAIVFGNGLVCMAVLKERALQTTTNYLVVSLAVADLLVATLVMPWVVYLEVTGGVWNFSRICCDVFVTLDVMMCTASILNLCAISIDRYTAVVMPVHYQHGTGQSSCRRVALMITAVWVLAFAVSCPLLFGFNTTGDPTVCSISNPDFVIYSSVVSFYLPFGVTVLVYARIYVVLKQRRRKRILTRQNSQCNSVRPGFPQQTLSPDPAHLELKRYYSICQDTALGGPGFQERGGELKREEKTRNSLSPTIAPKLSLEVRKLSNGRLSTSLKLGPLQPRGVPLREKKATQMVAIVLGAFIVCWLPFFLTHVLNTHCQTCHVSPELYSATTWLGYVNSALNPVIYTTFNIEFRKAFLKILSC
The experiment in a line: cAMP content in cells stably expressing D3 receptors (CHO-D3, forskolin, HTRF). The class given is cell-based. Here is the method: Determination of the effect of the compounds of the present invention on cAMP content in cells stably expressing D3 receptors
To determine the activation effect of the compounds on D3 receptor.
• 1. Preparation of the buffer: 1* HBSS + 20mM HEPES + 0.1% BSA + 500 µM IBMX. Complete medium: Ham's F12K + 10% fetal bovine serum +1* penicillin-streptomycin + 400 µg/mL G418. • 2. CHO-D3 cells were cultured in the complete medium at 37°C, 5% CO2. After TrypLE digestion, the cells were resuspended in the experimental buffer, and seeded into a 384-well cell culture plate at a seeding density of 8000 cells per well. • 3. The experimental buffer (1*HBSS, 0.1% BSA, 20 mM HEPES and 500 µM IBMX) was prepared. The compound was diluted with the buffer. 2.5 µL of the compound solution was added to each well, and the plate was incubated at 37°C for 10 minutes. The forskolin was diluted to 8 µM (8*) with the experimental buffer. 2.5 µL of the diluted 8* forskolin was added, and the plate was incubated at 37°C for 30 minutes. cAMP-d2 and Anti-cAMP-Eu^3+ were thawed, and diluted by 20-fold with the lysis buffer. 10 µL of cAMP-d2 was added to the experimental well, followed by the addition of 10 µL of Anti-cAMP-Eu^3+. The reaction plate was centrifuged at 200 g for 30 s at room temperature, and left to stand at 25°C for 1 h. Data was collected using Envision.
Background: In TR-FRET formats the signal depends on donor and acceptor labels being close together.

A further data set deals with T3, dopamine D3 receptor (Homo sapiens, UniProt P35462).
T3 construct: purchased PerkinElmer ES-173-M400UA
T3 sequence (P35462 whole entry): as above
The experiment in a line: Radioligand binding assay, dopamine D3 receptor ([3H]-methylspiperone). Particulars: Human Dopamine D3 Receptor membrane, [3H]-methylspiperone 0.5 nM. Here is the method:
Determination of the binding ability of the compounds of the present invention to dopamine D3 receptor
The objective of this test example is to determine the affinity of the compounds for dopamine D3 receptor.
Experimental buffer: 50 mM Tris-HCl pH 7.4, 10 mm MgCl2; washing liquor: 50 mM Tris-HCl pH 7.4, stored at 4°C; 0.5% PEI solution: 0.5 g PEI dissolved in 100 mL ddH2O, 4°C storage of spare.
5 µL of the test compounds (0.005 nM to 100 nM, 10 concentrations in total) and 100 µL of buffer were added to a 96-well assay plate. 1 µL of cell membrane and 300 µL of buffer were added to each well, and the plate was shaken at 600 rpm for 5 minutes. 100 µL of a mixed solution of buffer and [^3H]-methylspiperone (final concentration of 0.5 nM) was added to the reaction system per well, and the plate was shaken at 600 rpm for 5 minutes and incubated at 27°C for 30 min. The UNIFII,TER-96 GF/B filter plate pre-incubated with 0.5% PEI for 1 h was washed twice with the buffer (1 mL/well). The cell membrane suspension was added to the […]-96 GF/B filter plate, washed 4 times, and incubated at 55°C for 10 min. 40 µL of ULTIMA GOLD was added to each well, and liquid scintillation counting was carried out.
as §1

Data set [2] has as its target T1, 5-HT2A receptor. Put plainly: Calcium ion mobility in cells stably expressing 5-HT2A receptors (Flp-In-CHO-5HT2A, FLIPR). To be noted: Flp-In-CHO-5HT2A stable pool, 5HT stimulation. In kind it is cell-based. Details: expressed in transfected cells. Here is the method: Determination of the effect of the compounds of the present invention on calcium ion mobility in cells stably expressing 5-HT2A receptors
To determine the inhibitory effect of the compounds on 5-HT2A receptor.
• 1) Preparation of the buffer: 1 x HBSS, 20 mM HEPES, 2.5 mM probenecid (probenecid was 400 mM stock in 1 M NaOH), 0.1% BSA. Probenecid and BSA were added fresh on the day of the experiment. Experimental buffers include dye buffer and compound dilution buffer. • 2) Cell culture medium: Ham's F-12K + 10% fetal bovine serum + 600 µg/ml hygromycin B + 1* penicillin-streptomycin. Seeding medium: Ham's F-12K + 10% dialysis serum; Assay buffer: 1 x HBSS + 20 mM HEPES; Cell line: Flp-In-CHO-5HT2A stable pool. • 3) The cells were cultured in the complete medium at 37°C, 5% CO2 to 70%-90% confluency. The cells were digested with TrypLE, seeded to the 384-well assay plate at a density of 1 × 10^4 cells/well, and incubated for 16 to 24 hours (at least overnight). • 4) 20X Component A was thawed to room temperature, diluted to 2X working concentration (containing 5mM Probenecid) with the assay buffer, and placed at room temperature for later use. • 5) The cell culture plate was taken out and left to stand at room temperature for 10 min. […] 10 µl of diluted 5HT was add to each experimental well using FLIPR Tetra, and the values were read.
The calcium signal values were determined by FLIPR. The calculated output for each sampling time point in the experiment was the ratio of the 340/510 nm wavelength signals to 380/510 nm wavelength signals. The maximum minus minimum calculation was derived from the ratio signal curve. The percent inhibition rate and ten-point concentration data were fitted to the parametric nonlinear logistic equation by using GraphPad prism to calculate the IC50 values of the compound.

Data set [3] is described as follows: Pharmacokinetic assay in Balb/c mice (plasma and brain tissue). To be noted: male, mouse, po, p.o. 5 mg/kg; for AUC(0-t): read-out: Area under curve AUC0-t; for AUC(0-inf): read-out: Area under curve AUC0-∞; for Tmax: read-out: Peak time tmax; for Cmax: read-out: Plasma concentration Cmax; for MRT: read-out: Average residence time MRT; for half-life: read-out: Half life t1/2 (converted). In kind it is in vivo. Here is the method: Balb/c mice were used as test animals. The pharmacokinetic behavior in mouse body (plasma and brain tissue) of the compounds of Examples of the present invention was studied at an oral administration dose of 5 mg/kg.
Compounds of the Examples of the present invention, prepared by the applicant.
Male Balb/c mice (12 mice per group), purchased from Shanghai Jiesijie Laboratory Animal Co., LTD, with Certificate No.: SCXK (Shanghai) 2013-0006 N0.311620400001794.
The test compound was dissolved in 0.5% CMC-Na (1% Tween80) by sonication to formulate a clear solution or homogeneous suspension.
After an overnight fast, male Balb/c mice (12 mice per group) were administered p.o. with the test compound at an administration dose of 5 mg/kg and an administration volume of 10 mL/kg.
0.2 mL of blood was taken from the heart of the mouse before administration and at 1, 2, 4, 8 and 24 hours after administration, and the mice were sacrificed with CO2. The samples were stored in EDTA-K2 tubes, and centrifuged for 6 minutes at 4°C, 6000 rpm to separate the plasma. The plasma samples were stored at -80°C. Whole brain tissue was taken out, weighed, placed in a 2 mL centrifuge tube, and stored at -80°C.
• 1) 160 µL of acetonitrile was added to 40 µL of the plasma sample for precipitation, and then the mixture was centrifuged for 5 to 20 minutes at 3500 × g. • 2) 90 µL of acetonitrile containing internal standard (100 ng/mL) was added to 30 µL of the plasma and brain homogenate sample for precipitation, and then the mixture was centrifuged for 8 minutes at 13000 rpm. • 3) 70 µL of water was added to 70 µL of the treated supernatant and mixed by vortex for 10 minutes. 20 µL of the supernatant was taken to analyze the concentration of the test compound by LC/MS/MS. LC/MS/MS analytical instrument: AB Sciex API 4000 Qtrap.
• Liquid chromatography condition: Shimadzu LC-20AD pump • Chromatographic column: Agilent ZORBAX XDB-C18 (50×2.1 mm, 3.5 µm); Mobile phase: Eluent A was 0.1% formic acid in water, and Eluent B was acetonitrile • Flow rate: 0.4 mL/min • Elution time: 0-4.0 minutes, the eluent is as follows:
The main parameters of pharmacokinetics were calculated by WinNonlin 6.1. Table 17: Experimental results of pharmacokinetic assay in mice

Experimental findings from patent EP4332093A1, “SALT CONTAINING PIPERAZINE POLYCYCLIC DERIVATIVE, CRYSTAL FORM THEREOF, PREPARATION METHOD THEREFOR, AND USE THEREOF” (Shanghai Hansoh Biomedical Co., Ltd., priority 2021, dated 2022) are described below.

Like-named read-outs stand apart in the source and are kept apart here.

T1 sequence (P28223 whole entry): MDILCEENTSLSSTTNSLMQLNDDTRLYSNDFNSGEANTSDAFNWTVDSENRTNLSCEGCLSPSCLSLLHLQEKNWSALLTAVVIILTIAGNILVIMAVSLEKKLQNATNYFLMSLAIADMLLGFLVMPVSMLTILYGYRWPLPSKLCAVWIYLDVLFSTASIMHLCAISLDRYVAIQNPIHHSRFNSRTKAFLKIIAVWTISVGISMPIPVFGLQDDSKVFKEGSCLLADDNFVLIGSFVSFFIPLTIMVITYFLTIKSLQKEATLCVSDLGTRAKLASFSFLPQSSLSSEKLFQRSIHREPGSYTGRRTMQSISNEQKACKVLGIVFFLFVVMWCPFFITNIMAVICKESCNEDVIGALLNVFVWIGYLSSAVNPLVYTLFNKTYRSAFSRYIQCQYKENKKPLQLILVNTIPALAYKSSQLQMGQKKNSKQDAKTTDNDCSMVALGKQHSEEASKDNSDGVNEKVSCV

For `Cc1ncc(C(=O)NC2CC(CCN3CCN(c4cccc(Cl)c4Cl)CC3)C2)o1` (stereo not shown) [Example 16A], the results for the IC50 on 5-HT2A receptor [1], on dopamine D3 receptor and on 5-HT2A receptor [2] were 1.8 nM, 0.33 nM and 4.28 nM, respectively. Also, the EC50 on D3 receptor was 1.7 nM.

Turning to `CCN(C)C(=O)NC1CC(CCN2CCN(c3cccc4sccc34)CC2)C1` (stereo not shown) [Example 24, 3-(3-(2-(4-(Benzo[b]thiophen-4-yl)piperazin-1-yl)ethyl)cyclobutyl)-1-ethyl-1-methy lurea], at 5-HT2A receptor [1], the IC50 stood at 6.39 nM. Besides, the concentration giving a half-maximal response (EC50) on D3 receptor stood at 0.9 nM. Moreover, in data set [3] (Brain), the AUC(0-t) stood at 2190 ng·h/mL, the AUC(0-inf) amounted to 2310 ng·h/mL, the Tmax came out at 1 h and the Cmax was 339 ng/mL. Besides, in data set [3] (Plasma), the AUC(0-t) was found to be 1480 ng·h/mL, the AUC(0-inf) is 2000 ng·h/mL, the MRT stood at 5.7 h and the half-life is 3.4 h. In data set [3] (Plasma), the time of peak concentration (Tmax) amounted to 0.5 h and the Cmax was 369 ng/mL. The compound further displayed an IC50 at dopamine D3 receptor of 1.13 nM.

Regarding `O=C(NC1CC(CCN2CCCN(c3cccc(Cl)c3Cl)CC2)C1)c1ccco1` (stereo not shown) [Example 25, N-(3-(2-(4-(2,3-Dichlorophenyl)-1,4-diazepan-1-yl)ethyl)cyclobutyl)furan-2-carbox amide], the half-maximal inhibitory concentration (IC50) on 5-HT2A receptor [1] turned out to be 6.35 nM. Further, in data set [3] (Brain), the AUC(0-t) was 1540 ng·h/mL, the AUC(0-inf) was found to be 1650 ng·h/mL, the Tmax came to 1 h and the Cmax amounted to 162 ng/mL. For the same compound, in data set [3] (Plasma), the AUC(0-t) came to 240 ng·h/mL, the AUC(0-inf) was 297 ng·h/mL, the MRT worked out at 5.1 h and the half-life was 3.25 h. In addition, in data set [3] (Plasma), the Tmax worked out at 1 h and the Cmax came out at 49.7 ng/mL. At dopamine D3 receptor, this compound gave an IC50 of 0.79 nM.

As for `O=S(=O)(NC1CC(CCN2CCN(c3cccc(Cl)c3Cl)CC2)C1)C1CC1` (stereo not shown) [Example 11, N-(3-(2-(4-(2,3-Dichlorophenyl)piperazin-1-yl)ethyl)cyclobutyl)cyclopropanesulfon amide], the IC50 at 5-HT2A receptor [1] was 44 nM; at dopamine D3 receptor, 0.62 nM.

For `O=C(N[C@H]1C[C@@H](CCN2CCN(c3cccc(Cl)c3Cl)CC2)C1)C1(O)CC1` [Example 6B, N-(Cis-3-(2-(4-(2,3-dichlorophenyl)piperazin-1-yl)ethyl)cyclobutyl)-1-hydroxycyclo propane-1-carboxamide], the IC50 on 5-HT2A receptor [1] came to 48.4 nM. In data set [3] (Brain), the AUC(0-t) turned out to be 900 ng·h/mL, the Tmax turned out to be 1 h and the Cmax is 361 ng/mL. In data set [3] (Plasma), the AUC(0-t) is 2250 ng·h/mL, the AUC(0-inf) was 2320 ng·h/mL, the MRT was determined as 2.3 h and the half-life was 1.6 h. In data set [3] (Plasma), the Tmax is 0.5 h and the Cmax stood at 961 ng/mL. The compound also yielded an IC50 on dopamine D3 receptor of 4.37 nM. Moreover, the IC50 at 5-HT2A receptor [2] stood at 39 nM.

Regarding `C[C@@H]1CN(CCC2CC(NC(=O)C(C)(C)O)C2)CCN1c1cccc(Cl)c1Cl` (stereo partly drawn) [Example 22, (R)-N-(3-(2-(4-(2,3-Dichlorophenyl)-3-methylpiperazin-1-yl)ethyl)cyclobutyl)-2-hy droxy-2-methylpropanamide], the figures for the IC50 at 5-HT2A receptor [1] and at dopamine D3 receptor were 9.63 nM and 2.78 nM, respectively. Moreover, the EC50 on D3 receptor was found to be 0.4 nM.

A word on the IC50: it is the concentration at which inhibition is half-maximal. In general, EC50 refers to the concentration needed to bring the measured effect to its halfway point. As usually defined, the Tmax is the time from dosing to the highest level. Usually MRT stands for a mean duration of stay, worked out from the concentration-time curve.
